Measured values: US6156790A, “C-10 carbon-substituted artemisinin-like trioxane compounds having antimalarial, antiproliferative and antitumor activities” (priority 1997, dated 2000)
pIC50: −log10 of the molar value.

Tests used:
SK-MEL-28 = test: cells; assay type: cell-based; conditions: Homo sapiens
NCI-H522 = test: cells; assay type: cell-based; conditions: Homo sapiens; for IC (TGI): read-out: Log10 TGI (converted)
CAKI-1 = test: NCI 60 cell line screen (SRB), renal cancer; conditions: Homo sapiens; for CC50: CAKI-1, read-out: Log10 LC50 (converted)
786-0 = test: cells; assay type: cell-based; conditions: Homo sapiens; for IC (TGI): read-out: Log10 TGI (converted)
SF-539 = test: cells; assay type: cell-based; conditions: Homo sapiens; for GI50: read-out: Log10 GI50 (converted); for IC (TGI): read-out: Log10 TGI (converted)
SF-268 = test: NCI 60 cell line screen (SRB), CNS cancer; assay type: cell-based; conditions: Homo sapiens; for GI50: read-out: Log10 GI50 (converted)
MCF7/ADR-RES = test: cells; assay type: cell-based; conditions: Homo sapiens; for GI50: read-out: Log10 GI50 (converted)
LOX IMVI = test: cells; assay type: cell-based; conditions: Homo sapiens; for CC50: read-out: Log10 LC50 (converted); for IC (TGI): read-out: Log10 TGI (converted)
OVCAR-3 = test: NCI 60 cell line screen (SRB), ovarian cancer; assay type: cell-based; conditions: Homo sapiens; for GI50: read-out: Log10 GI50 (converted)
NCI-H322M = test: cells; assay type: cell-based; conditions: Homo sapiens, read-out: Log10 TGI
MDA-MB-435 = test: cells; assay type: cell-based; conditions: Homo sapiens; for IC (TGI): read-out: Log10 TGI (converted)
MALME-3M = test: cells; assay type: cell-based; conditions: Homo sapiens; for IC (TGI): read-out: Log10 TGI (converted)
60 cell line panel = conditions: cell line panels of 60 lines; cited from earlier work
[1] = system: chloroquine-sensitive P. falciparum (NF54); test: In vitro antimalarial activity ([3H]hypoxanthine incorporation); assay type: cell-based
Protocol: Activity was determined by measuring the incorporation of [^3 H]hypoxanthine, by the methods of Desjardins and Milhouse, with the following modofications, see […].; Haynes, […]. Antimicrob. Agents Chemother., 16:710 (1979); Milhous, W. K.; Weatherly, […].; Antimicrob. Agents Chemother., 27: 525 (1985). […] Parasitemia was maintained at 0.05-3% and doubling time at approximately 15 hours by twice weekly change of medium and replenishment with fresh erythrocytes. […] Sigma-Aldrich #27,043-1). DMSO solutions were diluted 500-fold in medium, serially diluted in 0.2% DMSO in medium (to maintain constant solvent concentration), then 100 μL aliquots were pipetted into microtiter plate wells (Costar 3595). […] Plates included at least 8 wells of no drug controls (4 with and 4 without DMSO) and 4 wells of uninfected erythrocytes. […] Cells were harvested (Brandel MB-48R) onto GF-C glass filters (Brandel). The filters were washed five times with 3 mL water per sample spot, dried under a heat lamp, and counted (Beckman Model LS-6500) in scintillation cocktail (ICN Cytoscint). Decays per minute (dpm) values were downloaded and analyzed (Power MFacintosh 7200/90; Microsoft Excel 5.0), to yield the mean and standard deviation at each drug concentration.

UACC-257 = test: cells; assay type: cell-based; conditions: Homo sapiens
HS 578T = test: cells; assay type: cell-based; conditions: Homo sapiens; for CC50: read-out: Log10 LC50 (converted); for IC (TGI): read-out: Log10 TGI (converted)
[2] = system: P. vivax and P. falciparum; conditions: cited from earlier work
OVCAR-5 = test: NCI 60 cell line screen (SRB), ovarian cancer; assay type: cell-based; conditions: Homo sapiens; for CC50: read-out: Log10 LC50 (converted); for IC (TGI): read-out: Log10 TGI (converted)
P. falciparum = conditions: Camp (chloroquine-susceptible) and Smith (chloroquine-resistant) strains; cited from earlier work
COLO 205 = test: NCI 60 cell line screen (SRB), colon cancer; assay type: cell-based; conditions: Homo sapiens; for CC50: read-out: Log10 LC50 (converted); for IC (TGI): read-out: Log10 TGI (converted)
P. berghei = conditions: P. berghei-infected mice; cited from earlier work
SN12C = test: cells; assay type: cell-based; conditions: Homo sapiens; for GI50: read-out: Log10 GI50 (converted); for CC50: read-out: Log10 LC50 (converted)
UACC-62 = test: cells; assay type: cell-based; conditions: Homo sapiens; for CC50: read-out: Log10 LC50 (converted)
SF-295 = test: cells; assay type: cell-based; conditions: Homo sapiens
OVCAR-4 = test: NCI 60 cell line screen (SRB), ovarian cancer; assay type: cell-based; conditions: Homo sapiens, read-out: Log10 GI50 (converted)
[3] = system: murine keratinocyte cell line PE; test: growth inhibition of PE cells (MTT assay); assay type: cell-based; conditions: 100 nanomolar
Protocol: To determine the inhibitory effect of the compositions of the present invention on cell proliferation, screening assays were performed on a murine keratinocyte cell line PE. Cell line PE was chosen for its particular sensitivity to the induction of ornithine decarboxylase (ODC) activity by the extensively characterized tumor promoter TPA. […] PE cell culture medium consisted of Eagle's minimal essential medium without calcium chloride (Whittaker Bioproducts, Walkersville, Mass.) supplemented with 8% chelexed fetal calf serum and 1% antibiotic-antimycotic (Gibco BRL) and the addition of CaCl2 to 0.05 mM Ca^++.
Growth Inhibition. Growth curves, shown in FIGS. 1 and 2, for PE cells treated with calcitriol and the C-10 carbon-substituted dimers 21, 22, 26, 27, and 28 generated by assay for the reduction of the tetrazolium-based compound MTT, see Charmichael, et al., Cancer Res., 47:936-942 (1987). […] PE cells were seeded at a density of 5,000 cells/well in 50 μL of medium into 96-well microtiter plates. Twelve hours later, the medium was removed, and cells were treated with 100 μL of fresh medium into which the appropriate amount of calcitrol or analog dissolved in dimethyl sulfoxide (DMSO) had been added, with the concentration of DMSO held constant at 0.1%. […] At 24-hour intervals following the initial treatment of the cells with compounds, 0.1 mg (50 μL of a 2 mg/mL solution) of MTT was added to each well. After 4 hours, the MTT was removed and DMSO added to dissolve the blue formazan dye. Using a microtiter plate reader, the A505 was then determined and cell number calculated from blank-subtracted absorbance values.

[4] = read-out: Log10 GI50 (converted)
[5] = read-out: Log10 LC50 (converted)
[6] = read-out: Log10 TGI (converted)

SMILES | IC (TGI) (NCI-H522) [µM] | CC50 (CAKI-1) [µM] | IC (TGI) (786-0) [µM] | GI50 (SF-539) [µM] | IC (TGI) (SF-539) [µM] | GI50 (SF-268) [µM] | GI50 (MCF7/ADR-RES) [µM] | CC50 (LOX IMVI) [µM] | IC (TGI) (LOX IMVI) [µM] | GI50 (OVCAR-3) [µM] | IC (TGI) (MDA-MB-435) [µM] | IC (TGI) (MALME-3M) [µM] | CC50 (HS 578T) [µM] | IC (TGI) (HS 578T) [µM] | CC50 (OVCAR-5) [µM] | IC (TGI) (OVCAR-5) [µM] | CC50 (COLO 205) [µM] | IC (TGI) (COLO 205) [µM] | GI50 (SN12C) [µM] | CC50 (SN12C) [µM] | also measured
C[C@H]1[C@@H](F)O[C@@H]2O[C@@]3(C)CC[C@H]4[C@H](C)CC[C@@H]1[C@@]24OO3 [Compound VI, 10β-Fluorodeoxoartemisinin] | 16.6 | 47.9 | 14.8 | 14.1 | 40.7 | 13.8 | 3.55 | 31.6 | 275 | 2.88 | 7.24 |  |  |  |  |  |  |  |  |  | GI50 (SK-MEL-28; [4]): 17.8 µM; GI50 (NCI-H522; [4]): 0.851 µM; CC50 (NCI-H522; [5]): 64.6 µM; GI50 (CAKI-1; CAKI-1, read-out: Log10 GI50 (converted)): 724 µM; GI50 (786-0; [4]): 1.55 µM; GI50 (LOX IMVI; [4]): 0.355 µM; IC (TGI) (NCI-H322M): > 100 µM; GI50 (MDA-MB-435; [4]): 0.692 µM; CC50 (MDA-MB-435; [5]): 34.7 µM
C[C@@H]1CC[C@H]2[C@@H](C)C(=O)O[C@@H]3O[C@@]4(C)CC[C@@H]1[C@]32OO4 [Artemisinin] |  |  |  |  |  |  |  |  |  |  |  | 87.1 | > 100 | > 100 | > 100 | > 100 | > 100 | > 100 | 61.7 | > 100 | CC50 (MALME-3M; [5]): > 100 µM; anticancer activity (60 cell line panel): very little anticancer activity; CC50 (SK-MEL-28; [5]): > 100 µM; IC (TGI) (SK-MEL-28; read-out: Log10 TGI): > 100 µM; pIC50 ([1]; Plasmodium falciparum, NF54): 8.00; CC50 (UACC-257; [5]): > 100 µM; clinical cure ([2]; 2099 cases, P. vivax and P. falciparum about 3:1): clinical cure of all patients; suppression of parasitemias ([2]; P. vivax and P. falciparum): effective at suppressing the parasitemias; potency in vitro compared with mefloquine (P. falciparum): comparable; SD90 (parasitemia 90 percent suppressed) (P. berghei): 6.20 mg/kg; CC50 (UACC-62): > 100 µM
C[C@H]1[C@@H](CC(=O)c2ccc(C(=O)C[C@H]3O[C@@H]4O[C@@]5(C)CC[C@H]6[C@H](C)CC[C@@H]([C@H]3C)[C@@]46OO5)cc2)O[C@@H]2O[C@@]3(C)CC[C@H]4[C@H](C)CC[C@@H]1[C@@]24OO3 [Dimer 21] | 28.2 | 27.5 | 14.8 | 0.0166 | 14.5 | 0.0631 | 0.0105 | 49 | 12 | 0.692 | 25.1 | 28.2 | 72.4 | 15.1 | 60.3 | 14.5 | 0.0759 | 0.0407 | 0.0105 | 85.1 | GI50 (MALME-3M; [4]): 0.0468 µM; IC50 compared with artemisinin ([1]; in words): lower than that of artemisinin; IC (TGI) (UACC-257; [6]): 17.8 µM; IC (TGI) (CAKI-1; CAKI-1, read-out: Log10 TGI): 0.0891 µM; GI50 (SF-295; [4]): 4.79 µM; CC50 (SF-295; [5]): 77.6 µM; IC (TGI) (SF-295; [6]): 25.1 µM; CC50 (SF-539; [5]): 38 µM; IC (TGI) (SF-268; [6]): 79.4 µM; GI50 (OVCAR-4): 1.58 µM; CC50 (MCF7/ADR-RES; [5]): 79.4 µM; IC (TGI) (MCF7/ADR-RES; [6]): 14.1 µM; IC (TGI) (OVCAR-3; [6]): 28.2 µM; antiproliferative activity compared with calcitriol [3]: at least as antiproliferative as calcitrol; IC (TGI) (SN12C; [6]): 12.3 µM; GI50 (UACC-62; [4]): 0.0724 µM; CC50 (UACC-62): 95.5 µM; IC (TGI) (UACC-62; [6]): 27.5 µM
